Results published in patent US4665083A, “Iminothiazolidine derivatives” (priority 1984, dated 1987).
Where two headings read alike, the source gives them in different places.

Assays:
Tetrabenazine ptosis = assay: animal or person; type: in vivo; settings: for Therapeutical index (tetrabenazine ptosis antagonism): LD50 and ED50 tetrabenazine ptosis, mice; for ED50: Mus musculus, po, read-out: Tetrabenazine ptosis antagonism ED50
Protocol: (2) Tetrabenazine ptosis antagonism on mice
The tetrabenazine ptosis antagonism of the compounds are tested on groups consisting of 10 mice each. […] 30 minutes after the introduction of the active agent or the vehicle, 50 mg/kg of tetrabenazine (3-isobutyl-9,10-[…]-1,2,3,4,6,7-hexahydrobenzo[a]quinolizine-2-one) are administered, intraperitoneally, and the animals with ptosis are counted 30, 60, 90 and 120 minutes after the administration of the tetrabenazine.
Evaluation: the average ptosis value is calculated in each group, and the deviation from the average obtained for the control group (inhibition) is given in percentage. From the data obtained ED50 values are calculated.

Reserpine ptosis = assay: animal or person; type: in vivo; settings: for Therapeutical index (reserpine ptosis antagonism): LD50 and ED50 reserpine ptosis, mice; for ED50: Mus musculus, sc, 1 h, read-out: Reserpine ptosis antagonism ED50
Protocol: (3) Reserpine ptosis antagonism on mice
Each group consisting of 10 mice are treated with 6 mg/kg of reserpine, subcutaneously. […] The animals with ptosis are counted 60 and 120 minutes after the administration of the compounds to be tested. Evaluation is carried out as given under point (2) above.

yohimbine toxicity = assay: animal or person; type: in vivo; settings: for Therapeutical index (potentiation of yohimbine toxicity): LD50 and ED50 yohimbine toxicity, mice; for ED50: Mus musculus, ip, read-out: Potentiation of yohimbine toxicity ED50
Protocol: (4) Yohimbine toxicity test on mice.
The examination is performed according to Quinton's method. Each group of animals consisting of 10 mice are treated with the compounds to be tested and the vehicle without active agent, respectively. After one hour a sublethal dosage of yohimbine in a volume of 20 ml/kg body weight is administered to the test groups, intraperitoneally. The number of the dead animals is recorded 1 and 24 hours after the administration of yohimbine.

in vivo = settings: mouse, mice, 7 days observation, Litchfield-Wilcoxon
Protocol: (1) Acute toxicity on mice
The acute toxicity is determined on mice of both sex (CFLP breed, body weight 18 to 22 g). For each dosis 6 animals are employed. The compounds tested are administered orally in a volume of 20 ml/kg body weight. After the administration the animals are observed for 7 days. During this period the animals are fed with standard mouse feed and water ad libitum. The toxicity values are determined according to Litchfield-Wilcoxon's method.

nicotine lethality = assay: Inhibition of nicotine spasm / nicotine lethality; type: in vivo, mice; settings: for Therapeutical index (inhibition of nicotine lethality): LD50 and ED50 nicotine lethality; for ED50: Mus musculus, read-out: Inhibition of nicotine lethality ED50
Protocol: (5) Inhibition of nicotine spasm
The test is carried out on mice according to Stone.

pentatetrazole spasm = assay: animal or person; type: in vivo; settings: for Therapeutical index (inhibition of pentatetrazole spasm): LD50 and ED50 pentatetrazole spasm, mice; for ED50: Mus musculus, po, read-out: Inhibition of pentatetrazole spasm ED50
Protocol: (6) Inhibition of pentatetrazole spasm
The test is performed on mice according to a modified method of Banziger and Hane.

maximum electroshock = assay: animal or person; type: in vivo; settings: for Therapeutical index (inhibition of maximum electroshock): LD50 and ED50 electroshock, mice; for ED50: Mus musculus, po, read-out: Inhibition of maximum electroshock ED50
Protocol: (7) Maximum inhibition of electroshock
The examination is carried out on mice weighing 20 to 25 g according to Swinyard. Electroshocks having the parameters of 50 Hz, 45 mA and 0.4 sec are employed by means of corneal electrodes. The complete inhibition of the tonic spasm of the lower limb extensor is taken as the criterium of the anticonvulsive action.

acetic acid writhing = assay: animal or person; type: in vivo; settings: for Therapeutical index (analgesic effect, writhing test): LD50 and ED50 writhing test, mice; for ED50: Mus musculus, ip, read-out: Analgesic effect (writhing test) ED50
Protocol: (9) Analgesic effect on mice (writhing test)
The test is carried out on mice according to the modified method of Newbould. 0.75 percent acetic acid is administered to the animals in a volume of 20 ml/kg, intraperitoneally, and the characteristic "writhing reactions" are counted for a period of 5 minutes, starting from the fifth minute after challenge. […] The inhibition relative to the control group is evaluated in percentage.

intestinal peristalsis = assay: animal or person; type: in vivo; settings: for Therapeutical index (inhibition of intestinal peristalsis): LD50 and ED50 intestinal peristalsis, mice; for ED50: Mus musculus, po, read-out: Inhibition of intestinal peristalsis ED50
Protocol: (8) Antiperistaltic effect on mice
The antiperistaltic effect of the compounds is examined on mice weighing 20 to 25 g according to the method of Stickney and co-workers. Each dosis of the compound to be tested is administered, orally, 60 minutes prior to the administration of a 10 percent carbon suspension. […] 20 minutes after the administration of the carbon suspension, the animals are sacrificed, and the length of the entire small intestine as well as that of the small intestine filled with carbon are determined. The inhibition in relation to the control is calculated in percentage. […] From the values thus-transformed ED50 values are calculated.

[1] = mice, oral, 1 hour before 1.4 mg/kg i.v. nicotine

Row | SMILES | Therapeutical index (tetrabenazine ptosis antagonism) (Tetrabenazine ptosis) | ED50 (Tetrabenazine ptosis) [mg/kg] | Therapeutical index (reserpine ptosis antagonism) (Reserpine ptosis) | ED50 (Reserpine ptosis) [mg/kg] | Therapeutical index (inhibition of nicotine lethality) (nicotine lethality; mice) | Therapeutical index (inhibition of pentatetrazole spasm) (pentatetrazole spasm) | ED50 (pentatetrazole spasm) [mg/kg] | LD50 at 168 h (in vivo; po) [mg/kg] | Therapeutical index (analgesic effect, writhing test) (acetic acid writhing) | ED50 (acetic acid writhing) [mg/kg] | Therapeutical index (inhibition of intestinal peristalsis) (intestinal peristalsis) | ED50 (intestinal peristalsis) [mg/kg] | further results
1 | CN(C)CCC=C1c2ccccc2CCc2ccccc21 [Amitriptylin, reference compound] | 18.7 | 12 | 3.5 | 65 | – | – | – | – | – | – | – | – | Therapeutical index (potentiation of yohimbine toxicity) (yohimbine toxicity): 18; ED50 (yohimbine toxicity): 12.5 mg/kg
2 | Cl.Cl.N=C1SCCN1c1ccc(Cl)cc1N [Compound 1, 3-(2-amino-4-chlorophenyl)-2-iminothiazolidine dihydrochloride] | 39 | 18 | 14 | 50 | 5.6 | 31.8 | 22 | – | – | – | – | – | LD50 at 168 h (in vivo; oral): 700 mg/kg; ED50 (nicotine lethality; po): 25 mg/kg; Therapeutical index (inhibition of maximum electroshock) (maximum electroshock): 10; ED50 (maximum electroshock): 70 mg/kg
3 | Cl.Cl.N=C1SCCN1c1cc(Cl)ccc1N [Compound 2, 3-(2-amino-5-chlorophenyl)-2-iminothiazolidine dihydrochloride] | 32 | 25 | – | – | – | 10.2 | 78 | 800 | 18.6 | 43 | – | – | Therapeutical index (potentiation of yohimbine toxicity) (yohimbine toxicity): 16; ED50 (yohimbine toxicity): 50 mg/kg
4 | CC1CSC(=N)N1c1ccc(Cl)cc1N.Cl.Cl (stereo not drawn) [Compound 3, 3-(2-amino-4-chlorophenyl)-2-imino-4-methylthiazolidine dihydrochloride] | 67 | 3 | 67 | 3 | 31.3 | 25.6 | 7.8 | 200 | – | – | – | – | ED50 (nicotine lethality; [1]): 6.4 mg/kg; Therapeutical index (inhibition of maximum electroshock) (maximum electroshock): 14.2; ED50 (maximum electroshock): 14 mg/kg
5 | N=C1SCCN1c1ccc(C(F)(F)F)cc1N [Compound 4 (diethanesulfonate)] | – | – | – | – | – | – | – | – | 8.1 | 160 | 52 | 25 | –
6 | Cl.N=C1SCCN1c1ccc(C(F)(F)F)cc1N [Compound 4, 3-(2-amino-4-trifluoromethylphenyl)-2-iminothiazolidine hydrochloride] | 32.5 | 40 | 38 | 34 | – | 8.1 | 160 | 1300 | – | – | 19.7 | 66 | –
7 | Cl.N=C1SCCN1c1ccc(Cl)cc1[N+](=O)[O-] [Compound 5, 3-(4-chloro-2-nitrophenyl)-2-iminothiazolidine hydrochloride] | – | – | – | – | 122 | 16.6 | 66 | 1100 | – | – | – | – | ED50 (nicotine lethality; [1]): 9 mg/kg
8 | Cl.N=C1SCCN1c1ccc(C(F)(F)F)cc1[N+](=O)[O-] [Compound 6, 3-(2-nitro-4-trifluoromethylphenyl)-2-iminothiazolidine hydrochloride] | – | – | – | – | – | – | – | 800 | – | – | 100 | 8 | –
9 | CCS(=O)(=O)O.CCS(=O)(=O)O.COc1ccc(N2CCSC2=N)c(N)c1 [Compound 7 (diethanesulfonate), 2-imino-3-(2'-amino-4'-methoxyphenyl)-thiazolidine di(ethanesulfonate)] | – | – | – | – | – | – | – | 2000 | – | – | 10 | 200 | –
10 | COc1ccc(N2CCSC2=N)c(N)c1.Cl.Cl [Compound 7, 3-(2-amino-4-methoxyphenyl)-2-iminothiazolidine dihydrochloride] | 75 | 16 | – | – | – | – | – | 1200 | – | – | – | – | –
11 | N=C1SCCN1c1cc(Cl)ccc1[N+](=O)[O-] [Compound 9, 3-(5-chloro-2-nitrophenyl)-2-iminothiazolidine] | – | – | – | – | – | – | – | 700 | 13 | 54 | 38.9 | 18 | –
12 | N=C1SCCN1c1ccccc1[N+](=O)[O-] [Compound 10, 3-(2-nitrophenyl)-2-iminothiazolidine] | – | – | – | – | 24 | – | – | 700 | 17.5 | 40 | 5 | 140 | ED50 (nicotine lethality; po): 50 mg/kg
13 | Br.COc1ccc(N2CCSC2=N)c([N+](=O)[O-])c1 [Compound 11, 3-(4-methoxy-2-nitrophenyl)-2-iminothiazolidine hydrobromide] | 16.3 | 40 | 16.3 | 40 | 14.4 | 19.11 | 34 | 650 | – | – | 6.2 | 105 | ED50 (nicotine lethality; [1]): 45 mg/kg
14 | Cc1ccc(N2CCSC2=N)c(N)c1 [Compound 13, 3-(2-amino-4-methylphenyl)-2-iminothiazolidine] | – | – | 18.5 | 70 | 130 | – | – | 1300 | 8.1 | 160 | – | – | Therapeutical index (potentiation of yohimbine toxicity) (yohimbine toxicity): 25; ED50 (yohimbine toxicity): 52 mg/kg; ED50 (nicotine lethality; [1]): 10 mg/kg
15 | N=C1SCCN1c1ccc(N)cc1 [Compound 14, 3-(4-aminophenyl)-2-imino-1,3-thiazolidine] | – | – | – | – | – | – | – | 400 | – | – | 4.4 | 50 | Therapeutical index (potentiation of yohimbine toxicity) (yohimbine toxicity): 20.0; ED50 (yohimbine toxicity): 20 mg/kg
16 | N=C1SCCN1c1ccc(N)cc1[N+](=O)[O-] [Compound 15, 3-(4-amino-2-nitrophenyl)-2-iminothiazolidine] | – | – | – | – | – | – | – | 1200 | 10.4 | 115 | 12 | 130 | –
17 | COc1ccc(Cc2nccc3cc(OC)c(OC)cc23)cc1OC [Papaverine, reference compound] | – | – | – | – | – | – | – | – | – | – | 2.01 | 185 | LD50 at 168 h (in vivo; oral): 380 mg/kg
18 | CC(=O)Nc1ccc(O)cc1 [Paracetamol, reference compound] | – | – | – | – | – | – | – | – | – | 180 | – | – | –
19 | OC(CCN1CCCCC1)(c1ccccc1)C1CCCCC1 (stereo not drawn) [Trihexyphenidyl, reference compound] | – | – | – | – | – | – | – | – | – | – | – | – | ED50 (nicotine lethality; [1]): 40 mg/kg
20 | CN1C(=O)OC(C)(C)C1=O [Trimethadion, reference compound] | – | – | – | – | – | – | 490 | – | – | – | – | – | LD50 at 168 h (in vivo; oral): 2050 mg/kg; ED50 (maximum electroshock): 400 mg/kg
